Values of other authors as cited in patent US7943796B2, “Lubricating oil additive and lubricating oil composition containing same” (Chevron Oronise Company LLC, priority 2008, dated 2011).

Test system: estrogen-inducible strain of yeast
Details: among alkylphenols, compared with 17β-estradiol

CC(C)(C)CC(C)(C)c1ccc(O)cc1 [4-tert-octylphenol, 4-(1,1,3,3-Tetramethyl-butyl)-phenol]
estrogenic activity: highest activity
